This is an account of results in the Kinase Knowledgebase extract (Sharma et al. 2016).

Structures are written as SMILES.

The target in one test is EGFR (UniProt P00533).
Another test has as its target EGFR (mouse) (UniProt P00533). The settings on record: mk.

Sequence of EGFR (P00533 whole entry, looked up): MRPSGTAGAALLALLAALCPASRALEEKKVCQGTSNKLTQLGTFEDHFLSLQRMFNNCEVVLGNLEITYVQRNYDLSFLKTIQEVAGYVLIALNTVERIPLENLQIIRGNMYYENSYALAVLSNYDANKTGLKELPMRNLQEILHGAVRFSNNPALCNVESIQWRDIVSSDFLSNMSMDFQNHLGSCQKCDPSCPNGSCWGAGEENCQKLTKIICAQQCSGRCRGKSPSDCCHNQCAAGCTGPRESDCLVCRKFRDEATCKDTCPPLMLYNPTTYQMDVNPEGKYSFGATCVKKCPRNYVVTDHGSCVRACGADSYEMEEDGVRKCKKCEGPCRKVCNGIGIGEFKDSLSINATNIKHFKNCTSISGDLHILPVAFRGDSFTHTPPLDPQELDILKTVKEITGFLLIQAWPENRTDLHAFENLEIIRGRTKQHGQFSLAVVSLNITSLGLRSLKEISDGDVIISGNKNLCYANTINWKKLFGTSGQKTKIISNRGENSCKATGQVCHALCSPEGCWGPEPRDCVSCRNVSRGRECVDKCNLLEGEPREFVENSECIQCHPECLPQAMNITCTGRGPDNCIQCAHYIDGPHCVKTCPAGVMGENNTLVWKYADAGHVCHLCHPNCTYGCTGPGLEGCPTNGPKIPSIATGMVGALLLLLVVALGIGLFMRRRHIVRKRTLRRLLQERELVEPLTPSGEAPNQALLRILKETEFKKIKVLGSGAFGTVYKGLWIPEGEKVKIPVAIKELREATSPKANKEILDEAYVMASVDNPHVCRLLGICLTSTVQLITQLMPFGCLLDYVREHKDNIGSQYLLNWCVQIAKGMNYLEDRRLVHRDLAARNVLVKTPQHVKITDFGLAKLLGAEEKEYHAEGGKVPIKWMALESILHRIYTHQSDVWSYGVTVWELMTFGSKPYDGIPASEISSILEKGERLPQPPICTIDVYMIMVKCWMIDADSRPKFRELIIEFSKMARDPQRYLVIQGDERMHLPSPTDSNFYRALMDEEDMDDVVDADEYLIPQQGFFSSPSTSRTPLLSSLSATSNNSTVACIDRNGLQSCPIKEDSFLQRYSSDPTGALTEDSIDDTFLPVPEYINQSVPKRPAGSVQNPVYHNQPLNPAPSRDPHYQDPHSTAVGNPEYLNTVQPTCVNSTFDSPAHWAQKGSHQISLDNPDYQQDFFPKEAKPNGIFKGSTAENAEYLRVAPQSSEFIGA

Usually IC50 stands for the concentration needed to halve the response being measured. Read a high IC50 as weaker potency. With `C[C@]12CC[C@@H](CO1)c1c(cc3c(c1O)C(=O)c1c(O)cc(O)cc1C3=O)O2`, the half-maximal inhibitory concentration (IC50) on EGFR amounted to 38 µM; with EGFR (mouse), 18 µM.
For `O=C1c2cc(O)cc(O)c2C(=O)c2c1cc(O)c(C1CCOC1=O)c2O` (centres undefined) the same measures were 11 µM and 35 µM.
On the same counts, the results for `O=C1c2cc(O)cc(O)c2C(=O)c2c1cc(O)c(CO)c2O` are 6.7 µM and 10 µM.
Regarding `CC(=O)CCC(C(=O)O)c1c(O)cc2c(c1O)C(=O)c1c(O)cc(O)cc1C2=O` (centres undefined), the figures for the IC50 on EGFR and in the test with EGFR (mouse) were 21 µM and over 50 µM, respectively.
On the same counts, the results for `O=C1c2cc(O)cc(O)c2C(=O)c2c1cc(O)c(C(CO)CCO)c2O` (centres undefined) are 21 µM and 22 µM.
With `O=C1c2cc(O)cc(O)c2C(=O)c2c1cc(O)c(C(CCO)C(=O)O)c2O` (centres undefined), the IC50 was determined as 10.5 µM against EGFR and 16 µM with EGFR (mouse).
For `COC(=O)C(CCC(C)=O)c1c(O)cc2c(c1O)C(=O)c1c(O)cc(O)cc1C2=O` (centres undefined) the same measures were 17 µM and 28 µM.
